Experimental data taken from patent publication US20160367515A1, “Improved delivery of poorly water soluble drugs with aphafetoprotein stabilized with metal ions” (Oy Safemed Ltd., priority 2013, published 2016).

Legend:
rat glioma C6 = assay: MTS cell viability assay, rat glioma C6 cells; format: cell-based; settings: C6, 48 h, compositions of paclitaxel with rhAFP or Zn-rhAFP
Experimental: Tumor cell lines: human mammary carcinoma MCF-7, human hepatoma HepG2, and rat glioma C6—were originated from the American Type Culture Collection (ATCC). All cell lines were maintained in the complete DMEM or RPMI-1640 media supplemented with L-glutamine and 10% fetal calf serum (FCS) in humidified 5% CO2 atmosphere. For a passage, adherent cells were incubated in the EDTA/0.25% trypsin solution, then washed and plated out for experiments. Prior to addition of reagents, cells were washed with the fresh media with 2% FCS, plated onto 96-well polystyrene plates (Costar, USA) at a density of 3×10^3 cell/well in 180 μL of complete medium with 2% FCS and incubated for 2 h. […] Cell proliferation was assessed by [^3H]-thymidine (^3H-TdR) incorporation assay. […] Cells were harvested and the ^3H-TdR incorporation was measured by using the liquid scintillation counter LKB 1209 Rackbeta (LKB, Sweden). Results were expressed as mean counts per minute (cpm)±standard error of the mean of triplicate cultures or as a percentage of ^3H-TdR incorporation in the experimental cell cultures relatively to the untreated control, as described (Semenkova et al., Tumour Biol. 1997; 18: 261-74).
Cell viability was assessed by the Promega CellTiter 96 AQueous Non-Radioactive Cell Proliferation MTS assay (Promega, USA) according to manufacturer's instructions. […]

NF-κB p65 = assay: Immunofluorescence of activated NF-κB p65 nuclear translocation in MCF-7 cells; format: cell-based, human; settings: MCF-7, 2 h treatment
Experimental: The cells were incubated with paclitaxel (10 μM) with addition of Zn-rhAFP (3.0 μM) and/or curcumin (3.0 μM) for 2 h and then assessed for localization of p65 by immunocytochemistry. Activated […] (p65) was detected by treatment of the cells with phospho […] p65 rabbit polyclonal antibody (Cell signaling technologies, USA) followed by secondary goat anti-rabbit Ab-Alexa594 red (Molecular Probes, USA). Cells were visualized at magnification ×400 by fluorescent microscope Axioplan; Zeiss (Germany) equipped with corresponding color filter kits.
The relative amount of p65 in the cytosol and nucleus of the cells was assessed by ImageJ software and was taken as 100% in the control (cytosol+nucleus). Total amount of activated p65 in control untreated cells was taken as 100%. The experimental data are represented as percentage of control±SD from three independent calculations in various observation fields.
MCF-7 cells were seeded on the microscopic plates Lab-Tek™ Chamber Slides (Thermo Fisher Scientific-Nunc, Germany) and cultivated at 37° C. at 5% CO2 atmosphere for 48 h to allow cell adaptation to reach 80% confluence. To test effects of chemotherapeutic preparations on the activation and translocation of NF-κB, cells were treated for 2 h with Ptx (10 nM), curcumin (30 μM); Zn-rhAFP (1.4 μM), or their combination Zn-rhAFP/Ptx/Cur, after which they were fixed with 100% ice-cold acetone. Control cells were incubated without additions and their NF-κB content was taken as 100%. Activated NF-κB was detected by treatment of the cells with phospho NF-κB p65 rabbit polyclonal antibody (Cell signaling technologies, USA) followed by the secondary goat anti-rabbit antibodies Ab-Alexa594 (Molecular Probes, USA). Nuclei were visualized by staining with DAPI (Molecular probes, USA). Cells were visualized at magnification ×400 by fluorescent microscope Axioplan (Zeiss, Germany) equipped with corresponding color filter kits. Distribution throughout the cell of the activated p65 was assessed by the ImageJ software and was taken as 100% in the control samples (cytosol+nucleus).

For `CC(=O)O[C@H]1C(=O)[C@@]2(C)[C@H]([C@H](OC(=O)c3ccccc3)[C@]3(O)C[C@H](OC(=O)[C@H](O)[C@@H](NC(=O)c4ccccc4)c4ccccc4)C(C)=C1C3(C)C)[C@]1(OC(C)=O)CO[C@@H]1C[C@@H]2O` [Ptx, paclitaxel], the IC50 (rat glioma C6) was 2500 nM and the “effect on activated p65 (RelA) in the cell nucleus” value (NF-κB p65) was “significant enhance of activated p65 localized in the nuclear region”.
